Source: US20080318884A1, “Methods for Altering Gene Expression and Methods of Treatment Utilizing Same” (THE UAB RESEARCH FOUNDATION, priority 2005, published 2008)

Tests used:
HdhQ150 mRNA = test: QSI treatment of ES cells hemizygous for HdhQ150, Hdh mRNA by quantitative real time PCR; format: cell-based, mouse; details: ES cells hemizygous for HdhQ150, QSI for six hours, high glutamine (1.2 grams/ml), FIG. 2C
Experimental: (§1) ES cell lines hemizygous for HdhQ150 were treated with an inhibitor of the glutaminyl-tRNA synthetase, QSI (5′-O-[N-(L-glutaminyl)sulfamoyl]adenosine) for six hours in the presence of high levels of glutamine. […] In this case the long CAG repeat is used to represent a rare cluster of codons. This diminishment in disease allele expression was accomplished in the presence of high amounts of glutamine (1.2 grams/ml) showing that reduction of expression can be attained by inhibition of a tRNA synthetase while providing normal amounts of the amino acid which is a substrate for the synthetase reaction. […]
(§2) Since the quantitative real time PCR (QRTPCR) assay (described below) cannot distinguish between different alleles of Hdh it is necessary that the ES cells only express a single allele. […] These engineered ES cells express only the long repeat version of Hdh and lack wild type Hdh mRNA as determined by RT-PCR across the repeat region.
(§3) Finally, a quantitative real time PCR (QRTPCR) assays has been developed for both Hprt and Hdh mRNA. […] During the PCR reaction the polymerase destroys the oligo releasing the […] to allow fluorescence. Fluorescence is measured though every cycle and the point when it increases beyond threshold is logarithmically related to the amount of starting RNA. […]

wild type Hdh mRNA = test: QSI treatment of control ES cells expressing a single wild type Hdh allele, Hdh mRNA by quantitative real time PCR; format: cell-based, mouse; details: QSI for six hours, high glutamine, FIG. 2C
Experimental: as §1, §2, §3

NC(=O)CC[C@H](N)C(=O)NS(=O)(=O)OC[C@H]1O[C@@H](n2cnc3c(N)ncnc32)[C@H](O)[C@@H]1O [QSI, 5′-O-[N-(L-glutaminyl)sulfamoyl]adenosine]
HdhQ150 mRNA levels (HdhQ150 mRNA): lowered by QSI treatment in a dose dependent manner | wild type Hdh mRNA levels (wild type Hdh mRNA): effect of QSI in lowering Hdh mRNA levels was dependent on the presence of the long CAG repeat
